Structures are written as SMILES.

`*/C(C)=C(/*)CCC` (repeat unit) showed a glass transition temperature of 200.00 °C.

Turning to `*=NP(=NP(=NC(=*)Oc1ccc(Br)cc1)(Oc1ccc(Br)cc1)Oc1ccc(Br)cc1)(Oc1ccc(Br)cc1)Oc1ccc(Br)cc1` (repeat unit), the glass transition temperature was 45.00 °C.

`*CC(*)(C#N)C(=O)OC` (repeat unit) came in with a glass transition temperature of 147.50 °C.

The compound `*CC(*)(C#N)C(=O)OCCCC` (repeat unit) gave a glass transition temperature of 117.00 °C.

Regarding `*CC(*)(C(=O)OC)c1ccccc1` (repeat unit), the glass transition temperature turned out to be 121.00 °C.

In the case of `*CC(*)(C)C(=O)NC(=O)Oc1ccc(S(=O)(=O)c2ccc(O)cc2)cc1` (repeat unit), the glass transition temperature worked out at 182.00 °C.

For the compound `*CC(*)(C)C(=O)NC1C(O)OC(CO)C(O)C1O` (repeat unit), the glass transition temperature is 90.50 °C.

Regarding `*CC(*)(C)C(=O)Nc1cccc(-c2nnc(-c3ccccc3)o2)c1` (repeat unit), the glass transition temperature was found to be 65.00 °C.

Consider `*CC(*)(C)C(=O)OC(C)C(C)(C)C` (repeat unit), for which the glass transition temperature was 108.00 °C.

Consider `*CC(*)(C)C(=O)OC(COc1cc2ccccc2c2ccccc12)COc1cc2ccccc2c2ccccc12` (repeat unit), for which the glass transition temperature was determined as 112.00 °C.

With `*CC(*)(C)C(=O)OC(COc1ccc(-c2ccccc2)cc1)COc1ccc(-c2ccccc2)cc1` (repeat unit), the glass transition temperature was determined as 85.00 °C.

Regarding `*CC(*)(C)C(=O)OC(OCC)C(F)(F)F` (repeat unit), the glass transition temperature worked out at 60.00 °C.

The compound `*CC(*)(C)C(=O)OC1(C)CCCN(c2ccc(/N=N/c3ccc(/C=C(\C#N)S(C)(=O)=O)cc3)cc2)C1` (repeat unit) registered a glass transition temperature of 196.00 °C.

Take `*CC(*)(C)C(=O)OC12CC3CC(C)(CC(C)(C3)C1)C2` (repeat unit): the glass transition temperature amounted to 194.00 °C.

As to `*CC(*)(C)C(=O)OC1CCC(C(C)(C)C)CC1` (repeat unit), the glass transition temperature turned out to be 100.00 °C.

In the case of `*CC(*)(C)C(=O)OC1CCCCC1C(C)(C)C` (repeat unit), the glass transition temperature is 185.00 °C.

`*CC(*)(C)C(=O)OC1CCOCC1` (repeat unit): the glass transition temperature came out at 153.50 °C.

In the case of `*CC(*)(C)C(=O)OCC#C` (repeat unit), the glass transition temperature is 58.00 °C.

Compound `*CC(*)(C)C(=O)OCC(=O)N1CCOCC1` (repeat unit) registered a glass transition temperature of 128.00 °C.

`*CC(*)(C)C(=O)OCC(CC)CCCC` (repeat unit) yielded a glass transition temperature of -10.00 °C.

Consider `*CC(*)(C)C(=O)OCC(F)(F)C(F)(F)C(F)(F)C(F)(F)C(F)(F)C(F)(F)C(F)(F)C(F)F` (repeat unit), for which the glass transition temperature is -15.00 °C.

Consider `*CC(*)(C)C(=O)OCC1(CC)COC1` (repeat unit), for which the glass transition temperature worked out at 105.00 °C.

Turning to `*CC(*)(C)C(=O)OCC1CO1` (repeat unit), the glass transition temperature is 68.50 °C.

`*CC(*)(C)C(=O)OCC1COC(=O)O1` (repeat unit) had a glass transition temperature of 124.00 °C.

The compound `*CC(*)(C)C(=O)OCCC(F)(F)C(F)(F)C(F)(F)C(F)(F)F` (repeat unit) gave a glass transition temperature of 23.00 °C.

The compound `*CC(*)(C)C(=O)OCCC1CC[N+](C)(CCCCCCOc2ccc(/N=N/c3ccc([N+](=O)[O-])cc3)cc2)CC1` (repeat unit) showed a glass transition temperature of 57.80 °C.

In the case of `*CC(*)(C)C(=O)OCCCCC` (repeat unit), the glass transition temperature was determined as 10.00 °C.

Regarding `*CC(*)(C)C(=O)OCCCCCC(=O)Oc1ccc(OC(=O)c2ccc(OCC)cc2)cc1` (repeat unit), the glass transition temperature came out at 43.00 °C.

`*CC(*)(C)C(=O)OCCCCCC(=O)Oc1ccc(OC(=O)c2ccc(OCCC)cc2)cc1` (repeat unit) yielded a glass transition temperature of 45.00 °C.

`*CC(*)(C)C(=O)OCCCCCCCCCCCCCCC(=O)NC1OC(CO)C(OC2OC(CO)C(O)C(O)C2O)C(O)C1O` (repeat unit) came in with a glass transition temperature of 133.00 °C.

As to `*CC(*)(C)C(=O)OCCCCCCCCCCCCCCC(=O)NC1OC(COC(C)=O)C(OC2OC(COC(C)=O)C(OC(C)=O)C(OC(C)=O)C2OC(C)=O)C(OC(C)=O)C1OC(C)=O` (repeat unit), the glass transition temperature worked out at 95.20 °C.

For `*CC(*)(C)C(=O)OCCCCCCCCCCCCCCCCCC` (repeat unit), the glass transition temperature is -100.00 °C.

Regarding `*CC(*)(C)C(=O)OCCCCCCCCCCCCOc1ccc(C(=O)Oc2ccc(-c3cccc(OC(=O)c4ccc(OC(=O)c5ccc(OCCCCCCCCCCCC)cc5)cc4)c3)cc2)cc1` (repeat unit), the glass transition temperature stood at 74.50 °C.

In the case of `*CC(*)(C)C(=O)OCCCCCCCCCCCOc1ccc(C(=O)Oc2ccc(C#N)cc2)cc1` (repeat unit), the glass transition temperature is 10.00 °C.

`*CC(*)(C)C(=O)OCCCCCCCCCCCOc1ccc2cc(C(=O)Oc3ccccc3)ccc2c1` (repeat unit): the glass transition temperature stood at 10.00 °C.

Compound `*CC(*)(C)C(=O)OCCCCCCCCCCOc1ccc(/N=N/c2ccc(Cl)cc2)cc1` (repeat unit) had a glass transition temperature of 54.00 °C.

With `*CC(*)(C)C(=O)OCCCCCCCCCCOc1ccc(/N=N/c2ccc(F)cc2)cc1` (repeat unit), the glass transition temperature was found to be 49.00 °C.

The compound `*CC(*)(C)C(=O)OCCCCCCCCCCOc1ccc(/N=N/c2ccc(OC)cc2)cc1` (repeat unit) came in with a glass transition temperature of 62.00 °C.

As for `*CC(*)(C)C(=O)OCCCCCCCCCCOc1ccc(/N=N/c2ccc([N+](=O)[O-])cc2)cc1` (repeat unit), the glass transition temperature was determined as 55.00 °C.

In the case of `*CC(*)(C)C(=O)OCCCCCCCCCCOc1ccc(C#Cc2cc(OC)c(/C=C/c3ccncc3)cc2OC)cc1` (repeat unit), the glass transition temperature turned out to be 87.10 °C.

In the case of `*CC(*)(C)C(=O)OCCCCCCCCCCOc1ccc(C(=O)Oc2ccc(C(=O)/C=C/c3c(C)c4ccccc4n3C)cc2)cc1` (repeat unit), the glass transition temperature was determined as 72.00 °C.

As to `*CC(*)(C)C(=O)OCCCCCCCCCCOc1ccc(C(=O)Oc2ccc(C(=O)/C=C/c3c(C)c4ccccc4n3CCCC)cc2)cc1` (repeat unit), the glass transition temperature was 57.00 °C.

As for `*CC(*)(C)C(=O)OCCCCCCCCCCOc1ccc(OC(=O)c2ccc(-c3ccc(OC)cc3)cc2)cc1` (repeat unit), the glass transition temperature came out at 57.00 °C.

For `*CC(*)(C)C(=O)OCCCCCCCCCCOc1ccc(OC(=O)c2ccc(OCCCC)cc2)cc1` (repeat unit), the glass transition temperature turned out to be 31.00 °C.

Turning to `*CC(*)(C)C(=O)OCCCCCCCCCCn1c2ccccc2c2cc(/C=C(\C#N)C(=O)OC)ccc21` (repeat unit), the glass transition temperature is 58.00 °C.

Regarding `*CC(*)(C)C(=O)OCCCCCCCCOc1ccc(/N=N/c2ccc(C3OCC4(CO3)CC3C=CC4C3)cc2)cc1` (repeat unit), the glass transition temperature was determined as 106.20 °C.

In turn, `*CC(*)(C)C(=O)OCCCCCCCCOc1ccc(C(=O)Oc2ccc(C(=O)/C=C/c3c(C)c4ccccc4n3C)cc2)cc1` (repeat unit) had a glass transition temperature of 75.00 °C.

`*CC(*)(C)C(=O)OCCCCCCN(C)c1ccc(N(C)C)cc1` (repeat unit) returned a glass transition temperature of 8.50 °C.

For the compound `*CC(CS(=O)(=O)C(C)C)O*` (repeat unit), the glass transition temperature turned out to be 64.00 °C.

In the case of `*CC(CS(=O)(=O)CCCCC)O*` (repeat unit), the glass transition temperature was found to be 39.00 °C.

For the compound `*CC(CS(C)(=O)=O)O*` (repeat unit), the glass transition temperature is 85.00 °C.

Take `*CC(C[N-][N+]#N)O*` (repeat unit): the glass transition temperature was -35.00 °C.

The compound `*CC(C[Si](*)(C)C)c1cccc2ccccc12` (repeat unit) returned a glass transition temperature of 39.00 °C.

In turn, `*CC(Cc1cccc2ccccc12)C[Si](*)(C)C` (repeat unit) showed a glass transition temperature of 17.00 °C.

Turning to `*CC(F)(F)C1(F)C(*)CC(O)(C(F)(F)F)C1(F)F` (repeat unit), the glass transition temperature was found to be 152.00 °C.

In turn, `*CC(O)C(O)CN(*)c1ccc(N(C)C)cc1` (repeat unit) showed a glass transition temperature of 72.00 °C.

With `*CC(O)CN(C)S(=O)(=O)c1cccc(S(=O)(=O)N(C)CC(O)COc2ccc(-c3ccc(O*)cc3)cc2)c1` (repeat unit), the glass transition temperature was determined as 58.00 °C.

Regarding `*CC(O)CN(C)S(=O)(=O)c1cccc(S(=O)(=O)N(C)CC(O)COc2ccc(C3(c4ccc(O*)cc4)c4ccccc4-c4ccccc43)cc2)c1` (repeat unit), the glass transition temperature was determined as 127.00 °C.

Regarding `*CC(O)CN(CC(O)CN(*)c1ccccc1)c1ccc(/N=N/c2ccc([N+](=O)[O-])cc2)cc1` (repeat unit), the glass transition temperature amounted to 70.00 °C.

`*CC(O*)C1CC(F)(F)C1(F)F` (repeat unit) came in with a glass transition temperature of -25.00 °C.

Turning to `*CC(O*)c1ccco1` (repeat unit), the glass transition temperature was 12.50 °C.

`*CC(OCC(C)C)C(C(=O)OC)C(*)C(=O)OC` (repeat unit) registered a glass transition temperature of 44.50 °C.

`*CC(OCC(C)C)C(C)(C(=O)OC)C(*)(C)C(=O)OC` (repeat unit) showed a glass transition temperature of 125.50 °C.

As for `*CC(S*)c1ccccc1` (repeat unit), the glass transition temperature was -2.50 °C.

Take `*CCCCOC(=O)Nc1ccc(Cc2ccc(NC(=O)OCCCCn3c4ccccc4c4cc(/C=C(\C#N)C(=O)OCCCCCCOC(=O)/C(C#N)=C/c5ccc6c(c5)c5ccccc5n6*)ccc43)cc2)cc1` (repeat unit): the glass transition temperature stood at 122.00 °C.

Compound `*N=P(N=P(/N=S(/*)Oc1ccc(C(C)(C)C)cc1)(Oc1ccc(-c2ccccc2)cc1)Oc1ccc(-c2ccccc2)cc1)(Oc1ccc(-c2ccccc2)cc1)Oc1ccc(-c2ccccc2)cc1` (repeat unit) registered a glass transition temperature of 54.00 °C.

`*N=P(N=P(N=S(*)(=O)NCC=C)(NCC=C)NCC=C)(NCC=C)NCC=C` (repeat unit) came in with a glass transition temperature of -18.00 °C.

`*N=P(N=P(N=S(*)(=O)Nc1ccccc1)(Nc1ccccc1)Nc1ccccc1)(Nc1ccccc1)Nc1ccccc1` (repeat unit) displayed a glass transition temperature of 82.00 °C.

`*OC(COc1ccccc1)CC(*)=O` (repeat unit): the glass transition temperature turned out to be 20.00 °C.

(Values after the PolyMetriX glass transition set.)
